# From ChEMBL document CHEMBL4334526, “Synthesis of Peptoid-Based Class I-Selective Histone Deacetylase Inhibitors with Chemosensitizing Properties” (J Med Chem, 2019)
# Calls of active or inactive are those of the source. The calls are words filed in the database; no cut-off is given here.
# Legend:
# [1] = Induction of apoptosis in human Cal27CisR cells assessed as caspase-3/7 activation at 0.5 uM measured after 48 hrs by CellEvent caspase 3/7 green detection reagent/Hoechst 33342 staining based imaging analysis relative to control; format: functional
# [2] = Induction of apoptosis in human Cal27CisR cells assessed as accumulation at sub-G1 phase at 100 uM measured after 48 hrs by propidium iodide staining based flow cytometry relative to control; format: functional
# CAL-27 [3] = test: Induction of apoptosis in human CAL27 cells assessed as accumulation at sub-G1 phase at 0.5 uM after 48 hrs by propidium iodide staining based flow cytometry relative to control; format: functional
# [4] = biological target: T1, Class 1 histone deacetylase (Homo sapiens, UniProt Q13547+O15379+Q92769+Q9BY41)
# Description: Inhibition of class 1 HDAC in human Cal27CisR cells assessed as potentiation of cisplatin-induced cytotoxicity by measuring combination index at 0.25 uM in presence of 3.2 uM cisplatin by MTT assay based Chou-Talalay analysis
# [5] = biological target: T1, Class 1 histone deacetylase; remark: listed apart in the source
# Description: Inhibition of class 1 HDAC in human Cal27CisR cells assessed as potentiation of cisplatin-induced cytotoxicity by measuring combination index at 0.10 uM in presence of 100 uM cisplatin by MTT assay based Chou-Talalay analysis
# [6] = biological target: T1, Class 1 histone deacetylase; details: CAL-27
# Description: Inhibition of class 1 HDAC in human CAL27 cells assessed as potentiation of cisplatin-induced cytotoxicity by measuring combination index at 0.1 uM in presence of 0.1 uM cisplatin by MTT assay based Chou-Talalay analysis
# CAL-27 [7] = test: Induction of apoptosis in human CAL27 cells assessed as accumulation at sub-G1 phase at 5 uM after 48 hrs by propidium iodide staining based flow cytometry; format: functional, cell-based
# [8] = biological target: T1, Class 1 histone deacetylase; test: (§1) Inhibition of class 1 HDAC in human CAL27 cells assessed as potentiation of cisplatin-induced apoptosis assessed as increase in caspase-3/7 activation at 5 uM preincubated for 48 hrs followed by cisplatin addition and measured after 24 hrs by CellEvent caspase 3/7 green detection reagent/Hoechst 33342 staining based imaging analysis; format: cell-based; details: CAL-27
# [9] = biological target: T1, Class 1 histone deacetylase; test: as §1, with “24 hrs in presence of pan caspase inhibitor QVD by CellEvent” for “24 hrs by CellEvent”; format: cell-based; details: CAL-27
# [10] = biological target: T2, Protein deacetylase HDAC6 (Homo sapiens) (UniProt Q9UBN7); test: Inhibition of HDAC6 in human CAL27 cells assessed as acetylation of alpha-tubulin at 5 uM measured after 24 hrs by immunoblot analysis; format: cell-based
# T2 sequence (whole entry): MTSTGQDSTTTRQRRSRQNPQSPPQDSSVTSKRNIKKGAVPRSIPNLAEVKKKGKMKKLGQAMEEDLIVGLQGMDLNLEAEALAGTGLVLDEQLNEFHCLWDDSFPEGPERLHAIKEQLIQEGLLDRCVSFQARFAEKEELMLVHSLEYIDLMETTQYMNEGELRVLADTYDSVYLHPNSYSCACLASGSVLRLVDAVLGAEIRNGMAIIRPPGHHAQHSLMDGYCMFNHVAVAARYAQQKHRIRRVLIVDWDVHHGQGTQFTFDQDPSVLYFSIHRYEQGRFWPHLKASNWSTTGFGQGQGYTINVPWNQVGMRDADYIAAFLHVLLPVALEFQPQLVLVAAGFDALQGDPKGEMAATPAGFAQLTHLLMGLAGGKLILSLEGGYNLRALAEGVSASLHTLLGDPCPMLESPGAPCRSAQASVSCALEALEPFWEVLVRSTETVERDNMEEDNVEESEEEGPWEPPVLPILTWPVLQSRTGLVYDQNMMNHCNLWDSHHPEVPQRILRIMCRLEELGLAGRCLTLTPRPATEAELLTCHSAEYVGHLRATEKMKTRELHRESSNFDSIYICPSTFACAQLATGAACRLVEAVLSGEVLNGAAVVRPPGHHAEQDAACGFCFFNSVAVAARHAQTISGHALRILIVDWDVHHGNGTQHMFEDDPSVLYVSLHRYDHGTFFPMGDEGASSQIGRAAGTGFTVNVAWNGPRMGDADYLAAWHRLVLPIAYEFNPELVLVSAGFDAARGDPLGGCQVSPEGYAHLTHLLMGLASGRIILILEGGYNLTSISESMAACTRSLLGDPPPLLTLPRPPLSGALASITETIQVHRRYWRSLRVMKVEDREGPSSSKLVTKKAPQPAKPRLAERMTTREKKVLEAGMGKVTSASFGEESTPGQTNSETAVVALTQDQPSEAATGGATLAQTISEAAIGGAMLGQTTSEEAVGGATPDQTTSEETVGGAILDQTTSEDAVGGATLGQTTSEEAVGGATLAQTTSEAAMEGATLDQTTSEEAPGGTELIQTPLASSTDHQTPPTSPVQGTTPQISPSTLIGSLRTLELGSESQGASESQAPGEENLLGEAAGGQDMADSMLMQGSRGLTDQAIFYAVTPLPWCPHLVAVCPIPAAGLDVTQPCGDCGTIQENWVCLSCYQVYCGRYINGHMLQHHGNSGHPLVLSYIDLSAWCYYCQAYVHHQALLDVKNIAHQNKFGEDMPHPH
# Homo sapiens = species: Homo sapiens; test: Induction of apoptosis in human Cal27CisR cells assessed as accumulation at sub-G1 phase at 5 uM after 48 hrs by propidium iodide staining based flow cytometry; format: functional, cell-based
# [11] = biological target: T1, Class 1 histone deacetylase; test: Inhibition of class 1 HDAC in human CAL27 cells assessed as potentiation of cisplatin-induced apoptosis by measuring increase in accumulation at sub-G1 phase at 5 uM preincubated for 48 hrs followed by cisplatin addition and measured after 24 hrs by propidium iodide staining based flow cytometry; format: cell-based; details: CAL-27
# [12] = biological target: T1, Class 1 histone deacetylase; test: as §1, with “Cal27CisR” for “CAL27”; format: cell-based
# [13] = biological target: T1, Class 1 histone deacetylase; test: Inhibition of class 1 HDAC in human CAL27 cells assessed as potentiation of cisplatin-induced cytotoxicity by measuring fold reduction in cisplatin IC50 at 5 uM preincubated for 48 hrs followed by cisplatin addition and measured after 72 hrs by MTT assay relative to cisplatin IC50; format: cell-based; details: CAL-27
# [14] = biological target: T1, Class 1 histone deacetylase; test: Inhibition of class 1 HDAC in human Cal27CisR cells assessed as potentiation of cisplatin-induced cytotoxicity by measuring combination index at 5 uM in presence of 32 uM cisplatin by MTT assay based Chou-Talalay analysis; format: cell-based
# [15] = biological target: T1, Class 1 histone deacetylase; test: Inhibition of class 1 HDAC in human CAL27 cells assessed as potentiation of cisplatin-induced cytotoxicity by measuring fold reduction in cisplatin IC50 at […] preincubated for 48 hrs followed by cisplatin addition and measured after 72 hrs by MTT assay relative to cisplatin IC50; format: cell-based; details: CAL-27
# [16] = biological target: T1, Class 1 histone deacetylase; test: Inhibition of class 1 HDAC in human Cal27CisR cells assessed as potentiation of cisplatin-induced cytotoxicity by measuring fold reduction in cisplatin IC50 at […] preincubated for 48 hrs followed by cisplatin addition and measured after 72 hrs by MTT assay relative to cisplatin IC50; format: cell-based
# [17] = biological target: T1, Class 1 histone deacetylase; test: as §1, with “activation at […] preincubated for” for “activation at 5 uM preincubated for”, “24 hrs in presence of pan caspase inhibitor QVD by CellEvent” for “24 hrs by CellEvent”; format: cell-based; details: CAL-27
# [18] = biological target: T2, Protein deacetylase HDAC6 (Homo sapiens); test: Inhibition of HDAC6 in human Cal27CisR cells assessed as acetylation of alpha-tubulin at […] measured after 24 hrs by immunoblot analysis; format: cell-based
# T1 sequence (O15379 whole entry, looked up): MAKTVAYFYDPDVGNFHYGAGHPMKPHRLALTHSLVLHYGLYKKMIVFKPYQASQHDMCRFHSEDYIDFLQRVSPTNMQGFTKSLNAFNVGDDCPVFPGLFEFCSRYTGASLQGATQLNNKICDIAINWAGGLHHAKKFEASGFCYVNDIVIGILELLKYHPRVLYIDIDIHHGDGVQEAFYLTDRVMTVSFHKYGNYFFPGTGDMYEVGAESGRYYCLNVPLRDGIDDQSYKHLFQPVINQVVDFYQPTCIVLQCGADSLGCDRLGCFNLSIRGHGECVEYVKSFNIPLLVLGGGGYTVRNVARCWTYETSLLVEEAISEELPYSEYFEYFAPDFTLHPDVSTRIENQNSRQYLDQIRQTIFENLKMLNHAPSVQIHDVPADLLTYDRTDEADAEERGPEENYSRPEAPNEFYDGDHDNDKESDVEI
# T1 sequence (Q13547 whole entry, looked up): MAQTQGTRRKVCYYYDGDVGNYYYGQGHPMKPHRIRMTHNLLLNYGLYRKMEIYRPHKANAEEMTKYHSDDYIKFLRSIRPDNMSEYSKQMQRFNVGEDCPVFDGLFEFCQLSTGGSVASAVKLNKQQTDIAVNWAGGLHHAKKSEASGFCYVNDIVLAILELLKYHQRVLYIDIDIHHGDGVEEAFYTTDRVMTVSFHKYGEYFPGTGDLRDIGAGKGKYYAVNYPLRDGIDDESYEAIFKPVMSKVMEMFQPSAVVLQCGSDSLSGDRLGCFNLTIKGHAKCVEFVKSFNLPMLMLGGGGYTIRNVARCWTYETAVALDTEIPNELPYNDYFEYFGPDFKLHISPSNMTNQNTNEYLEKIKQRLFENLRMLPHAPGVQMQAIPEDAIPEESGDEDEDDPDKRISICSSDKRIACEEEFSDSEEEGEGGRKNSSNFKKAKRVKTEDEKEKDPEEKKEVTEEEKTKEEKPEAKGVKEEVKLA
# T1 sequence (Q92769 whole entry, looked up): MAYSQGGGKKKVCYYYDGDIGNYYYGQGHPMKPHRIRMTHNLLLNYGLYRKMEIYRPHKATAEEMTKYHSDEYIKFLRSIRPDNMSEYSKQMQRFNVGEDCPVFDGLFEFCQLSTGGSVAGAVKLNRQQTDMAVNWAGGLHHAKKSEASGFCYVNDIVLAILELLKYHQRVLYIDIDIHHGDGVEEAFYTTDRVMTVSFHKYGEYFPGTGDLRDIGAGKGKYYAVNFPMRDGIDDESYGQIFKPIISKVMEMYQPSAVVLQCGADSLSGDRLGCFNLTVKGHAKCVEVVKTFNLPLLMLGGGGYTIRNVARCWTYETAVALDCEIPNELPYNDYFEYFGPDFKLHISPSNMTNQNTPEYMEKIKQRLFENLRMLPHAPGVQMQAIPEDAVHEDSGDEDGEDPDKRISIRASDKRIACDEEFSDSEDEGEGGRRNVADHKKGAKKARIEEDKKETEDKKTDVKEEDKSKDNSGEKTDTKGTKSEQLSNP
# T1 sequence (Q9BY41 whole entry, looked up): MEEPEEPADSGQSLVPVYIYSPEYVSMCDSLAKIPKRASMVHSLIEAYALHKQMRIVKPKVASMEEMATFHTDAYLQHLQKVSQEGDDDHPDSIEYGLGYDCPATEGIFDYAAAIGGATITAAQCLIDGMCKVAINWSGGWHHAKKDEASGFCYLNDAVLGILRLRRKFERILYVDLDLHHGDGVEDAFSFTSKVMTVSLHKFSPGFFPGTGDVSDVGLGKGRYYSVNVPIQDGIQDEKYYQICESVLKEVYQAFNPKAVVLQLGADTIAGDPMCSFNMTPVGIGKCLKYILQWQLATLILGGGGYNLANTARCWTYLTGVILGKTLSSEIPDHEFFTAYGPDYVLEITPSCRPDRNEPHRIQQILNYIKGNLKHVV
compound,measurement,setting,value
CN(C)c1ccc(C(=O)N(CC(=O)NCc2ccccc2)Cc2ccc(C(=O)Nc3ccccc3N)cc2)cc1,Activity,[1],8.16%
same,Activity,[2],32.1%
same,Activity,CAL-27 [3],9.42%
same,CI,[4],0.44
same,CI,[5],0.07
same,CI,[6],< 0.2
Cc1cc(C)cc(C(=O)N(CCCCCC(=O)Nc2cc(-c3ccccc3)ccc2N)CC(=O)NCc2ccccc2)c1,Activity,CAL-27 [7],inactive
same,inhibition,[8],Active
same,inhibition,[9],inactive
same,inhibition,[10],inactive
same,Activity,Homo sapiens,inactive
same,inhibition,[11],Active
same,inhibition,[12],Active
same,Ratio IC50,[13],5.26
same,CI,[14],0.1
Cc1cc(C)cc(C(=O)N(CC(=O)NCc2ccccc2)Cc2ccc(C(=O)Nc3cc(-c4ccccc4)ccc3N)cc2)c1,Ratio IC50,[15],5.26
same,Ratio IC50,[16],5.27
same,inhibition,[17],inactive
same,inhibition,[18],inactive
